Data from publication PMC4280898, “Diazido Mixed-Amine Platinum(IV) Anticancer Complexes Activatable by Visible-Light Form Novel DNA Adducts” (Chemistry (Weinheim an Der Bergstrasse, Germany), 2013).
Several values for one entry are separate records, joined by “and”; a condition that tells them apart may be missing. Equal entries are not always repeated.

Key:
calf thymus DNA = experiment: Characterisation of DNA adducts with thiourea; assay type: binding; conditions: in the dark; for Total adducts displaced from DNA by thiourea after 24 h: 10 mM thiourea; for Bifunctional adducts after 24 h: thiourea probe
Protocol: Characterisation of DNA adducts: The experiments aimed at the characterisation of DNA adducts of photoactivated 1 or 2, and of 5 or 6 in the dark were conducted employing thiourea as a probe of DNA monofunctional adducts of trans-platinum(II) compounds[24] (for details, see the Supporting Information). After 24 h, 55(±10), 48(±2), 66(±1) and 64(±3) % of the total adducts of platinum complexes 1, 2, 5 and 6, respectively, were displaced from DNA by thiourea (Figure 10). Thus, only 45, 52, 34 and 36 % of DNA adducts formed by 1 or 2 (photoactivated) and 5 or 6 (in the dark), respectively, had evolved to bifunctional lesions after this time interval.
Figure 10 Quantification of DNA adducts by thiourea. Dependence of rb on incubation time for calf thymus DNA modified by photoactivated: A) 1, or B) 2 (420 nm light); and in the dark with: C) 5, or D) 6. Reactions were stopped with thiourea (10 mM; 10 min, 310 K; ▴) or without thiourea (▪), and the platinum associated with DNA was assessed. […]
assayed by differential pulse polarography for free, unbound platinum.[16] The amount of platinum bound to DNA was calculated by subtracting the amount of free (unbound) platinum from the total amount of platinum present in the reaction.
Transcription mapping of DNA adducts in vitro
The 212-bp DNA fragment used was yielded from cutting of pSP73KB DNA by NdeI and HpaI restriction endonucleases (a substantial part of the nucleotide sequence is […]
This fragment contained T7 RNA polymerase promoter (in the upper strand close to its 3'-end). This linear DNA fragment was randomly modified by transplatin (8), cisplatin (7), 5 and 6 in the dark and by 1 and 2 photoactivated with 420 nm light at rb = 0.01, for RNA synthesis by T7 RNA polymerase. The fragments produced in RNA synthesis on the template modified by the platinum complexes were analysed by a 6% polyacrylamide/8M urea sequencing gel.
Quantification of DNA adducts
Double-helical calf thymus DNA at a concentration of 32 µg/mL was incubated with 5 or 6 in the dark, or alternatively, DNA mixed with 1 or 2 was irradiated for 30min (λirrad = 420 nm) and then incubated in the dark in 10 mM NaClO4 at 310 K. At various time intervals the aliquots were withdrawn and the platination reaction was stopped by addition of 10 mM thiourea, samples were incubated for 10 min at […] and then quickly cooled to 253 K. In parallel experiments, 100 mM NaCl was added to the samples instead of thiourea and samples were immediately cooled to 253 K.
Platinum associated with DNA was assessed by flameless atomic absorption […]
Quantification of DNA interstrand cross-links […]

pSP73KB plasmid DNA = experiment: DNA interstrand cross-linking, denaturing agarose gel; assay type: biochemical; conditions: in the dark
Protocol: Interstrand cross-links: In this experiment, interstrand cross-linking efficiency of photoactivated 1 or 2, and of 5 or 6 in the dark was investigated using pSP73KB plasmid DNA. The DNA samples were treated with complexes 5 or 6 in the dark or with 1 or 2 under irradiation conditions and then were analysed by agarose gel electrophoresis under denaturing conditions. The interstrand cross-linked DNA appears in the autoradiogram as the top bands (Figure 11), which migrate more slowly than the single-strand DNA (the bottom bands). The frequencies of interstrand cross-links formed by photoactivated 1 or 2, and 5 and 6 (in the dark) were 23(±5), 19(±3), 9(±3) and 16(±2) %, respectively.
Figure 11 Agarose gel electrophoresis for quantification of DNA interstrand cross-linking. The interstrand cross-links (ICLs) by: A) 1 or 2 under irradiation conditions (420 nm light), and B) 5 or 6 in the dark were formed in linear pSP73KB plasmid DNA. A) Lane 1: control, non-modified DNA; lane 2: control, non-modified DNA, but irradiated; lanes 3–7: DNA modified by photoactivated 1 at rb=3.35×10^−5, 6.70×10^−5, 3.35×10^−4, 6.70×10^−4, 3.35×10^−3, respectively; lanes 8–12: DNA modified by photoactivated 2 at rb=3.70×10^−5, 7.40×10^−5, 3.70×10^−4, 7.40×10^−4, 3.70×10^−3, respectively. […]

A2780 cells = experiment: SRB proliferation assay for non-light-sensitive complexes, A2780; assay type: cell-based, human; conditions: ambient light, 24 h exposure, 72 h recovery
Protocol: Cytotoxicity of platinum(II) precursors: To investigate the relationship between the Pt^IV diazidodihydroxido complexes and their Pt^II dichlorido analogues trans-[PtCl2(Am1)(Am2)] (where Am=amine), the cytotoxicities of complexes trans-[PtCl2(MA)(Py)] (5) and trans-[PtCl2(MA)(Tz)] (6) towards A2780 and its cisplatin resistant sub-line A2780cis were determined. The toxicity was not photoinduced, as the complexes are not photoactive. Complexes 5 and 6 are highly cytotoxic towards A2780 and A2780cis cells compared to the reported trans-Pt^II compounds.[18]–[22] Complex 5 is about three-times more cytotoxic than complex 6 towards A2780 cells. […]
Cell Culture and Proliferation Assay for Non-light-sensitive Complexes
The A2780 ovarian cell line was obtained from the ECACC (European Collection of Animal Cell Culture, Salisbury, United Kingdom). The cells were maintained in RPMI 1640 media, which was supplemented with 10% foetal calf serum, 1% L-glutamine, and 1% penicillin/streptomycin. All cells were grown at 310 K in an humidified atmosphere containing 5% CO2. Stock solutions of the Pt complexes were freshly prepared in DMSO to assist dissolution and then diluted into saline and medium (maximum final concentration of DMSO 1% and saline 6%). After plating 5000 A2780 cells per well on day 1, Pt complexes were added to the cancer cells on day 3 at concentrations ranging from 0.01 to 100 µM, depending on the preliminary activity data obtained in screening assays. Cells were exposed to the complexes for 24 h, washed with PBS, supplied with fresh medium, and allowed to grow for three doubling times (72 h), and then the protein content (proportional to cell survival) was measured using the sulforhodamine B (SRB) assay.[7] The standard errors are based on two independent experiments of three replicates each.[8]

SMILES | Total adducts displaced from DNA by thiourea after 24 h (calf thymus DNA) | Bifunctional adducts after 24 h (calf thymus DNA) | Interstrand cross-link (pSP73KB plasmid DNA) | IC50 (A2780 cells) [µM]
C[NH2+][Pt@SP3-2]([Cl])([Cl])[n+]1ccccc1 [Complex 5, trans-[PtCl2(MA)(Py)]] | 66(±1) % | 34% and 34±1% | 9(±3) % and 9±3% | 2.4 ± 0.7
C[NH2+][Pt@SP3-2]([Cl])([Cl])[n+]1ccsc1 [Complex 6, trans-[PtCl2(MA)(Tz)]] | 64(±3) % | 36% and 36±2% | 16(±2) % and 16±2% | 6.9 ± 2.3
